We go through nine molecules from PubChem BioAssay (NCI).

SMILES strings stand for the structures.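 Where inhibition never reached the appropriate level, the endpoint shown equals the highest concentration tested. Otherwise, values were interpolated linearly from a five-concentration, 48-hour dose response in 96-well plates. Here, GI50 denotes the concentration required for 50% inhibition of growth. TGI: concentration producing complete growth inhibition.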 Bounds are passed on as bounds.

Some test systems named below: M14 melanoma; HCT-15 colon; NCI-H23 lung; MDA-MB-231 breast; 786-0 renal; OVCAR-3 ovarian; SK-MEL-2 melanoma; NCI-H522 lung; NCI-H460 lung; SR leukemia.
Common to all, as to assay: NCI anticancer screen, dose series, 48 h

Turning to `CC(=O)O[C@H]1CCc2c(cc(N)c3c2C(=O)C[C@]2(C)C([C@H](C)CCCC(C)C)CCC32C)C1(C)C` (stereo not given in full), the TGI in the assay on M14 melanoma, in the assay with HCT-15 colon, in the assay on NCI-H23 lung, in the assay with MDA-MB-231 breast, in the assay with 786-0 renal and in the assay with OVCAR-3 ovarian was over 100 µM throughout. The TGI in the assay with SK-MEL-2 melanoma, with NCI-H522 lung, in the assay with NCI-H460 lung and in the assay on SR leukemia was over 100 µM each time.

As to `CC(C)CCC1(CCN)C(=O)NC(=O)NC1=O`, the TGI with M14 melanoma, in the assay on HCT-15 colon, in the assay with NCI-H23 lung, with MDA-MB-231 breast, in the assay with 786-0 renal and with OVCAR-3 ovarian was over 100 µM in each case. Besides, the TGI in the assay with SK-MEL-2 melanoma, with NCI-H522 lung, in the assay with NCI-H460 lung and with SR leukemia was over 100 µM throughout.

On to `Cc1cc(I)cc(CN(C)CCCN2CCCC2)c1O`, for which the GI50 was 16.4 µM in the assay on M14 melanoma; 19.1 µM in the assay with HCT-15 colon; 30 µM with NCI-H23 lung; 18.6 µM with MDA-MB-231 breast; 14.4 µM in the assay with 786-0 renal; 23.2 µM with OVCAR-3 ovarian. In addition, the GI50 in the assay with SK-MEL-2 melanoma was 20.6 µM; with NCI-H522 lung, 20.7 µM; in the assay with NCI-H460 lung it was 16.9 µM; in the assay on SR leukemia, 7.52 µM. The TGI in the assay with M14 melanoma is 33 µM; in the assay with HCT-15 colon it was 47.5 µM; in the assay with NCI-H23 lung, over 100 µM; with MDA-MB-231 breast, 49.9 µM; in the assay with 786-0 renal, 30.3 µM; with OVCAR-3 ovarian it was over 88.2 µM. For the same molecule, the TGI in the assay on SK-MEL-2 melanoma turned out to be 40.4 µM; in the assay with NCI-H522 lung, 45.9 µM; in the assay on NCI-H460 lung it was 38.4 µM; in the assay with SR leukemia, 36.6 µM.

As to `COC(=O)C1(C)Cc2cc(OC(C)=O)c(OC(C)=O)cc2N1` (stereo not given), the GI50 was 15.6 µM in the assay with M14 melanoma; 2.64 µM in the assay with HCT-15 colon; 18.2 µM in the assay on NCI-H23 lung; 17.8 µM in the assay with MDA-MB-231 breast; 24.1 µM in the assay with 786-0 renal; 6.97 µM in the assay on OVCAR-3 ovarian. Besides, the GI50 is 5.92 µM in the assay with SK-MEL-2 melanoma, 0.633 µM in the assay on NCI-H522 lung, 32.8 µM in the assay with NCI-H460 lung and 1.65 µM with SR leukemia. Also, the TGI with M14 melanoma worked out at 54.4 µM; with HCT-15 colon it was 12.9 µM; in the assay on NCI-H23 lung, 62.5 µM; in the assay on MDA-MB-231 breast, 56.5 µM; with 786-0 renal it was 62.2 µM; in the assay on OVCAR-3 ovarian, 23.8 µM. Besides, the TGI in the assay on SK-MEL-2 melanoma is 17.9 µM; with NCI-H522 lung, 1.8 µM; in the assay with NCI-H460 lung it was over 100 µM; in the assay with SR leukemia, 4.76 µM.

As for `COC(=O)C(/C(=N\O)C(=O)Nc1cccc(Cl)c1C)c1cnc2ccccc2n1` (stereo not given), the TGI in the assay with M14 melanoma, with HCT-15 colon, with NCI-H23 lung, with MDA-MB-231 breast, in the assay on 786-0 renal and in the assay with OVCAR-3 ovarian was over 100 µM throughout. Further, the TGI in the assay on SK-MEL-2 melanoma, with NCI-H522 lung, in the assay with NCI-H460 lung and with SR leukemia was over 100 µM each time.

Turning to `CCN(C(=O)/C=C/c1ccco1)c1ccccc1`, the TGI in the assay on M14 melanoma, with HCT-15 colon, in the assay with NCI-H23 lung, in the assay with MDA-MB-231 breast, in the assay with 786-0 renal and with OVCAR-3 ovarian was over 100 µM throughout. Besides, the TGI in the assay on SK-MEL-2 melanoma, in the assay with NCI-H522 lung, with NCI-H460 lung and with SR leukemia was over 100 µM throughout.

Take `CC(C)(C)OC(=O)NCCCCCCCn1c2c(c3ccccc3c1=O)C(=O)c1ccccc1-2`: the GI50 with M14 melanoma is 44.4 µM; with HCT-15 colon, 41.7 µM; in the assay on NCI-H23 lung it was 26 µM; in the assay on MDA-MB-231 breast it was 29.5 µM; in the assay on 786-0 renal, 23.2 µM; with OVCAR-3 ovarian it was 34.3 µM. The GI50 in the assay with SK-MEL-2 melanoma was 36.6 µM; in the assay with NCI-H522 lung, 26.4 µM; with NCI-H460 lung, 28.6 µM; in the assay with SR leukemia, 4.95 µM. The TGI is over 100 µM in the assay with M14 melanoma; over 100 µM with HCT-15 colon; over 100 µM in the assay with NCI-H23 lung; over 100 µM with MDA-MB-231 breast; 55.4 µM in the assay on 786-0 renal; over 100 µM with OVCAR-3 ovarian. Further, the TGI in the assay on SK-MEL-2 melanoma, with NCI-H522 lung, in the assay with NCI-H460 lung and in the assay with SR leukemia was over 100 µM throughout.

On to `CN(C)C(=O)O[C@H]1CN[C@H](C#Cc2cc3ncnc(Nc4ccc(OCc5cccc(F)c5)c(Cl)c4)c3s2)C1`, for which the GI50 in the assay on M14 melanoma was over 25 µM; with HCT-15 colon it was 14.2 µM; with NCI-H23 lung, over 25 µM; with MDA-MB-231 breast, 4.14 µM; in the assay on 786-0 renal it was 5.8 µM; in the assay on OVCAR-3 ovarian it was 4.2 µM. Moreover, the GI50 with SK-MEL-2 melanoma is over 25 µM; with NCI-H522 lung, 0.977 µM; with NCI-H460 lung, 7.25 µM; in the assay on SR leukemia, 5.86 µM. Besides, the TGI with M14 melanoma is over 25 µM; with HCT-15 colon, over 25 µM; in the assay with NCI-H23 lung it was over 25 µM; with MDA-MB-231 breast it was 11.6 µM; in the assay with 786-0 renal it was 15 µM; in the assay with OVCAR-3 ovarian it was 16.3 µM. For the same molecule, the TGI with SK-MEL-2 melanoma is over 25 µM; in the assay on NCI-H522 lung it was over 12.7 µM; in the assay on NCI-H460 lung, over 25 µM; with SR leukemia it was over 25 µM.

Take `O=c1oc2ccc(I)cc2c(=O)n1-c1ccc(Cl)cc1F`: the GI50 in the assay on M14 melanoma is 0.598 µM; with HCT-15 colon it was 2.37 µM; in the assay on NCI-H23 lung, 1.61 µM; in the assay on MDA-MB-231 breast, 1.27 µM; with 786-0 renal, 3.14 µM; with OVCAR-3 ovarian, 0.974 µM. The GI50 is 0.582 µM in the assay with SK-MEL-2 melanoma, 0.8 µM with NCI-H522 lung, 0.89 µM in the assay on NCI-H460 lung and 1.13 µM in the assay on SR leukemia. The TGI came out at 7.87 µM in the assay on M14 melanoma; 12.6 µM in the assay with HCT-15 colon; 7.68 µM in the assay with NCI-H23 lung; 5.71 µM with MDA-MB-231 breast; 10.5 µM in the assay on 786-0 renal; 12 µM with OVCAR-3 ovarian. For the same molecule, the TGI with SK-MEL-2 melanoma was 3.43 µM; with NCI-H522 lung, 9.72 µM; with NCI-H460 lung it was 13.1 µM; in the assay with SR leukemia, over 100 µM.
